From PMC6440584 (Eurosurveillance, 2019)

Tests used:
[1] = target: neuraminidase (NA) of influenza A(H3N2) virus A/YOKOHAMA/88/2019 (Influenza A virus, UniProt A0A193ACB1); type: biochemical
[2] = target: neuraminidase (NA) of influenza A(H3N2) virus A/YOKOHAMA/87/2019 (Influenza A virus, UniProt A0A193ACB1); type: biochemical

Compound: CCC(CC)[C@H](NC(C)=O)[C@@H]1[C@H](O)[C@@H](C(=O)O)C[C@H]1N=C(N)N [Peramivir, peramivir]
- WHO criteria (fold change of IC50 compared with reference IC50) [1]: 0.13 (NI) (key: NI: normal inhibition)
- WHO criteria (fold change of IC50 compared with reference IC50) [2]: 0.16 (NI) (key: NI: normal inhibition)
